Structures can show the parent of a compound that is named as a salt.
test system: human Jurkat T cells challenged with Fas ligand and treated with zVAD; experiment: Anti-necrotic activity, human Jurkat T cells challenged with Fas ligand and treated with zVAD; type: cell-based; conditions: viability after 36 h by CellTiter ATP assay, read-out: EC50 (μM) for cell viability
Description: (§1) After a cell receives an initial assault either apoptotic, necrotic, or both apoptotic and necrotic mechanisms of cell death may be activated. The present example focuses on the necrosis pathway. Several chemical assaults were used to induce cell death, including exposure to tumor necrosis factor alpha (TNF-α), Fas ligand or β-amyloid protein. Various cell types were also used, including human neuroblastoma cells (SH-SY5Y) and human Jurkat T cells. In order to block the apoptosis mechanism, a general caspase inhibitor, N-benzyloxycarbonyl-valine-alanine-aspartic acid-(OMe) fluoromethyl ketone (zVAD, Polyerino, A. J.; Patterson, S. D. J. Biol. Chem. 1997, 272, 7013-7021), was used. […] Resulting cell death occurs by a necrosis-like mechanism (Holler, N., et al. Nature Immunol. 2000, 1, 489-495; Kawahara, A., et al. J. Cell Biol. 1998, 143, 1353-1360). Experimental compounds were applied to the cells in attempts to rescue them from this necrotic death. Therefore, compounds found to restore cell viability using this protocol are inhibitors of the necrosis pathway.
Compounds were also tested in another necrosis assay utilizing human Jurkat T cells, Fas ligand to induce cell death, and zVAD to inhibit the apoptosis pathway. After 36 h, cell viability was measure by the commercial CellTiter ATP cell viability assay (Promega).
Compounds were screened for anti-necrotic activity utilizing human Jurkat T cells challenged with Fas ligand and treated with zVAD to inhibit the apoptosis pathway.

Row | SMILES | EC50 [µM]
1 | CN1C(=O)C(Cc2c[nH]c3ccccc23)NC1=S (centres unmarked) [Compound 893-01, 5-(1H-Indol-3-ylmethyl)-3-methyl-2-thioxo-imidazolidin-4-one] | 6
2 | CCN1C(=O)NC(Cc2c[nH]c3ccccc23)C1=O (centres unmarked) [Compound 893-04, 3-Ethyl-5-(1H-indol-3-ylmethyl)-imidazolidine-2,4-dione] | 10
3 | CN1C(=O)C(Cc2c[nH]c3cc(F)ccc23)NC1=S (centres unmarked) [Compound 893-05, 5-(6-Fluoro-1H-Indol-3-ylmethyl)-3-methyl-2-thioxo-imidazolidin-4-one] | 2.3
4 | CN1C(=O)C(Cc2cn(C)c3ccccc23)NC1=S (centres unmarked) [Compound 893-08, 3-Methyl-5-(1-methyl-1H-Indol-3-ylmethyl)-2-thioxo-imidazolidin-4-one] | 35
5 | CN1C(=O)C(Cc2c[nH]c3c(F)cccc23)NC1=S (centres unmarked) [Compound 893-09, 5-(7-Fluoro-1H-Indol-3-ylmethyl)-3-methyl-2-thioxo-imidazolidin-4-one] | 4
6 | CN1C(=O)C(Cc2c[nH]c3c(Cl)cccc23)NC1=S (centres unmarked) [Compound 893-10, 5-(7-Chloro-1H-indol-3-ylmethyl)-3-methyl-2-thioxo-imidazolidin-4-one] | 1.5
7 | CN1C(=O)C(Cc2c[nH]c3cc(Cl)ccc23)NC1=S (centres unmarked) [Compound 893-11, 5-(6-Chloro-1H-indol-3-ylmethyl)-3-methyl-2-thioxo-imidazolidin-4-one] | 67
8 | CN1C(=O)C(Cc2c[nH]c3c(Br)cccc23)NC1=S (centres unmarked) [Compound 893-12, 5-(7-Bromo-1H-indol-3-ylmethyl)-3-methyl-2-thioxo-imidazolidin-4-one] | 1.8
9 | COc1cccc2c(CC3NC(=S)N(C)C3=O)c[nH]c12 (centres unmarked) [Compound 893-13, 5-(7-Methoxy-1H-indol-3-ylmethyl)-3-methyl-2-thioxo-imidazolidin-4-one] | 10.3
10 | CN1C(=O)NC(Cc2c[nH]c3ccccc23)C1=O (centres unmarked) [Compound 893-20, 3-Methyl-5-(1H-indol-3-ylmethyl)-imidazolidine-2,4-dione] | 6
11 | CN1C(=O)C(Cc2csc3ccccc23)NC1=S (centres unmarked) [Compound 893-21, 5-Benzo[b]thiophen-3-ylmethyl-3-methyl-2-thioxo-imidazolidin-4-one] | 8

test system: human B cell line U-937; experiment: Library screen for inhibition of cell death induced by TNF-α in the presence of zVAD; type: cell-based; conditions: U-937 cells
Description: as §1
Compound libraries were screened for inhibition of cell death induced by TNF-α in the presence of zVAD in human B cell line U-937.

Row | SMILES | inhibition of cell death induced by TNF-α in the presence of zVAD
12 | CN1C(=O)C(Cc2c[nH]c3ccccc23)NC1=S (centres unmarked) [Compound 1] | inhibitor of necrosis

test system: not given; experiment: not given; conditions: not given

Row | melting point [°C] | SMILES
13 | 229 to 232 | O=C1NC(=O)C(Cc2c[nH]c3ccccc23)N1 (centres unmarked) (as salt: potassium)
14 | 179 to 182 | CN1C(=O)C(C)(Cc2c[nH]c3ccccc23)NC1=S (centres unmarked) [Compound 893-02, 5-(1H-Indol-3-ylmethyl)-3,5-dimethyl-2-thioxo-imidazolidin-4-one]
15 | 132 to 135 | CN1C(=O)C(Cc2c[nH]c3ccccc23)N(C)C1=S (centres unmarked) [Compound 893-03, 5-(1H-Indol-3-ylmethyl)-1,3-dimethyl-2-thioxo-imidazolidin-4-one]
16 | 126 to 129 | CN1C(=O)C(Cc2c[nH]c3cc(F)ccc23)NC1=S (centres unmarked) [Compound 893-05, 5-(6-Fluoro-1H-Indol-3-ylmethyl)-3-methyl-2-thioxo-imidazolidin-4-one]
17 | 181 to 185 | COc1ccc2[nH]cc(CC3NC(=S)N(C)C3=O)c2c1 (centres unmarked) [Compound 893-06, 5-(5-Methoxy-1H-Indol-3-ylmethyl)-3-methyl-2-thioxo-imidazolidin-4-one]
18 | 166 to 168 | CN1C(=O)C(Cc2c[nH]c3ccc(O)cc23)NC1=S (centres unmarked) [Compound 893-07, 5-(5-Hydroxy-1H-Indol-3-ylmethyl)-3-methyl-2-thioxo-imidazolidin-4-one]
19 | 155 to 157 | CN1C(=O)C(Cc2cn(C)c3ccccc23)NC1=S (centres unmarked) [Compound 893-08, 3-Methyl-5-(1-methyl-1H-Indol-3-ylmethyl)-2-thioxo-imidazolidin-4-one]
20 | 217 to 220 | CN1C(=O)C(Cc2c[nH]c3c(F)cccc23)NC1=S (centres unmarked) [Compound 893-09, 5-(7-Fluoro-1H-Indol-3-ylmethyl)-3-methyl-2-thioxo-imidazolidin-4-one]
21 | 230 to 233 | CN1C(=O)C(Cc2c[nH]c3c(Br)cccc23)NC1=S (centres unmarked) [Compound 893-12, 5-(7-Bromo-1H-indol-3-ylmethyl)-3-methyl-2-thioxo-imidazolidin-4-one]
22 | 219 to 222 | COc1cccc2c(CC3NC(=S)N(C)C3=O)c[nH]c12 (centres unmarked) [Compound 893-13, 5-(7-Methoxy-1H-indol-3-ylmethyl)-3-methyl-2-thioxo-imidazolidin-4-one]
23 | 242 to 245 | CN1C(=O)C(Cc2c[nH]c3c(Cl)cc(S(C)(=O)=O)cc23)NC1=S (centres unmarked) [Compound 893-16, 5-(7-Chloro-5-methanesulfonyl-1H-indol-3-ylmethyl)-3-methyl-2-thioxo-imidazolidin-4-one]

test system: human FAD-deficient Jurkat T cells challenged with human TNF-alpha; experiment: Anti-necrotic activity, FADD-/- Jurkat T cells challenged with human TNF-alpha; type: cell-based; conditions: 10 ng/ml human TNFα, 30 hours, CellTiter-Glo ATP assay, read-out: EC50 (μM) for cell viability
Description: Compounds were screened for anti-necrotic activity utilizing human FAD-deficient Jurkat T cells challenged with human TNF-alpha. FADD−/− Jurkat cells (Juo P, et al. Cell Growth Differ. 1999, 10(12):797-804) were seeded at the density of 5*10^5 cells/mL into 96 well white plates (Costar) at 100 μL/well. Cells were treated in duplicate with various concentrations of test compounds in the presence or absence of 10 ng/ml human TNFα (Cell Sciences). After 30 hours viability of the cells was determined using luminescent ATP-based cell viability assay (CellTiter-Glo, Promega). Percentage of protection by the compound was calculated as a ratio of the cps (counts per second) value in the well treated with the test compound and TNFα to the cps value in the well treated with the compound alone.

Row | SMILES | EC50 [µM]
24 | Cc1cccc2c(CC3NC(=O)N(C)C3=O)c[nH]c12 (centres unmarked) [Compound 893-23] | 0.095
25 | Cc1cccc2c(CC3NC(=O)N(C)C3=O)c[nH]c12 (centres unmarked) [Compound 893-38] | > 10

same assay, conditions: Homo sapiens, Jurkat, 30 h, 10 ng/ml human TNFα, CellTiter-Glo ATP assay, read-out: EC50 (μM) for cell viability

Row | SMILES | EC50 [µM]
26 | CN1C(=O)NC(Cc2csc3ccccc23)C1=O (racemic) [Compound 893-39, 5-benzo[b]thiophen-3-ylmethyl-3-methyl-imidazolidine-2,4-dione] | 5.4
27 | CN1C(=O)C(Cc2csc3ccccc23)NC1=S (centres unmarked) [Compound 893-21, 5-Benzo[b]thiophen-3-ylmethyl-3-methyl-2-thioxo-imidazolidin-4-one] | 0.845
28 | CN1C(=O)NC(Cc2c[nH]c3ccccc23)C1=O (centres unmarked) [Compound 893-22, 5-(1H-Indol-3-ylmethyl)-3-methylimidazolidine-2,4-dione] | 0.439
29 | COc1cccc2c(CC3NC(=O)N(C)C3=O)c[nH]c12 (centres unmarked) [Compound 893-25] | 0.229
30 | CN1C(=O)NC(Cc2c[nH]c3c(F)cccc23)C1=O (centres unmarked) [Compound 893-28] | 0.324
31 | CN1C(=O)N[C@@H](Cc2c[nH]c3c(Cl)cccc23)C1=O [Compound 893-31] | 0.303
32 | CN1C(=O)N[C@H](Cc2c[nH]c3c(Cl)cccc23)C1=O [Compound 893-32] | 0.078
33 | CN1C(=O)NC(Cc2c[nH]c3c(Cl)cc(Cl)cc23)C1=O (centres unmarked) [Compound 893-33] | > 10
34 | CCN1C(=O)NC(Cc2c[nH]c3c(Cl)cccc23)C1=O (centres unmarked) [Compound 893-34] | 0.154
35 | CN1C(=O)C(Cc2c[nH]c3c(Cl)cccc23)N(C)C1=O (centres unmarked) [Compound 893-36, 5-(7-Chloro-1H-indol-3-ylmethyl)-1,3-dimethyl-imidazolidine-2,4-dione] | > 10
36 | CN1C(=O)NC(Cc2cn(C)c3c(Cl)cccc23)C1=O (centres unmarked) [Compound 893-37, 5-(7-Chloro-1-methyl-1H-indol-3-ylmethyl)-3-methyl-imidazolidine-2,4-dione] | 1.8
37 | COCCOc1cccc2c(CC3NC(=O)N(C)C3=O)c[nH]c12 (centres unmarked) [Compound 893-41] | > 10
38 | CN1C(=O)NC(Cc2c[nH]c3c(OCc4ccccc4)cccc23)C1=O (centres unmarked) [Compound 893-42] | > 10
39 | Cc1[nH]c2c(Cl)cccc2c1CC1NC(=O)N(C)C1=O (centres unmarked) [Compound 893-43] | > 10
40 | CC(C)N1C(=O)NC(Cc2c[nH]c3c(Cl)cccc23)C1=O (centres unmarked) [Compound 893-44] | > 10
41 | CN1C(=O)NC(Cc2c[nH]c3c(Cl)c(Cl)ccc23)C1=O (centres unmarked) [Compound 893-50] | > 10
42 | O=C1NC(Cc2c[nH]c3c(Cl)cccc23)CO1 (centres unmarked) [Compound 893-51, 4-(7-chloro-1H-indol-3-ylmethyl)-oxazolidin-2-one] | > 10
43 | CN1CC(Cc2c[nH]c3c(Cl)cccc23)NC1=O (centres unmarked) [Compound 893-52, 4-(7-chloro-1H-indol-3-ylmethyl)-1-methyl-imidazolidin-2-one] | > 10
44 | CN1C(=O)OC(Cc2c[nH]c3c(Cl)cccc23)C1=O (centres unmarked) [Compound 893-53, 5-(7-chloro-1H-indol-3-ylmethyl)-3-methyl-oxazolidine-2,4-dione] | 0.359

Reference: patent publication US8741942B2, “Inhibitors of cellular necrosis” (President and Fellows of Harvard College, priority 2003, dated 2014)
